Structures can show the parent of a compound that is named as a salt.
Legend:
[1] = test system: N-acetylglycosaminidase (as osteoclastic activity index); settings: scalp slices of new-born mouse, tissue culture; starting from the 10 μmolar concentration
Description: (§1) A study on a tissue culture (scalp slices of new-born mouse prepared according to the method described by A. Togari, Gen. Pharmacol. 24, 1133, 1993) was performed. At the end of the culture period, the tissue added μmolar concentrations of the title product, was homogenised in saline plus 0.1% Triton X-100.
(§2) The obtained homogenate was used to determine alkaline phosphatase (as osteoblastic activity index) and N-acetylglycosaminidase (as osteoclastic activity index).

[2] = test system: alkaline phosphatase (as osteoblastic activity index); settings: scalp slices of new-born mouse, tissue culture; starting from the 10 μmolar concentration
Description: as §1, §2

Compound: NCCCC(O)(P(=O)(O)O)P(=O)(O)O [alendronate trometamine, alendronate trometamine salt]
- osteoclastic activity (N-acetylglycosaminidase) [1]: inhibit the osteoclastic activity
- osteoblastic activity (alkaline phosphatase) [2]: activate in a significant manner the osteoblastic activity

Reference: patent US6410782B1, “Diphosphonic acid salts for the treatment of osteoporosis” (Geange Ltd., priority 1997, dated 2002)
